Assays:
[1] = D-DHA substitution rates in plasma, red blood cells and retina of mice on 0.5% w/w D-DHA diet; type: in vivo, C57BL/6J mice; conditions: for doubling interval of D-DHA substitution rate: first order kinetics
Source text: Mature adult C57BL/6J mice were fed for 78 days with a customized rodent diet containing 0.5% w/w D-DHA and no natural DHA. The animals were sacrificed, and plasma, red blood cells and retinal tissues were dissected at study Days 8, 19, 38, 78, (six animals per time point, 3 males + 3 females). D-DHA + DHA were extracted from samples and derivatized into methyl esters with a mixture of heptane/ toluene (63:37 by volume), and methanol/ dimethoxypropane/ sulfuric acid (85:11:4 by volume) by gentle shaking at 80° C. for 2 hours, followed by separation and drying down of the organic phase under nitrogen. D-DHA + DHA methyl esters were structurally identified and quantified by gas chromatography coupled with a tandem mass spectrometry detector and D-DHA substitution levels (in percent of total DHA) were calculated. The results are represented in Table 1 and graphed in FIG. 1.

[2] = tested on: carboxyethyl pyrrole (CEP); experiment: Immunolabelling for CEP on cryosections; type: in vivo, C57BL/6J mice; conditions: 1 week after injection, 4 weeks diet
Method: Iron-catalyzed peroxidation of phospholipids containing DHA leads to unique carboxyethyl pyrrole (CEP) adducts not formed from any other PUFA. CEP has been detected by IHC in human AMD eyes and mouse retinas, including those from mice receiving IVT iron. To test whether D-DHA could protect against iron-induced CEP formation, mice were fed with D-DHA or DHA for 4 weeks prior to IVT injection of iron or control saline.
Cryosections were prepared at 4h and 1 week after injections. Co-labelling for CEP and rhodopsin was conducted to assess and localize CEP. […] At 1 week after injection, immunolabelling for CEP localized to RPE and infiltrating myeloid cells in IVT iron injected eyes of DHA fed mice, likely originationg from phagocytosed oxidized photoreceptor outer segments (FIG. 8B). Immunolabelling for CEP was undetected in D-DHA fed mice. […] Quantification of pixel density for CEP and L-Ft label was conducted using ImageJ software (FIGS. 8F and 8G), and quantitatively verified the results described above.
Immunofluorescence on cryosections was conducted as described previously. […] Images were acquired with an epifluorescence microscope (Nikon 80i microscope, Nikon, Tokyo, Japan), and analyzed using NIS-Elements (Nikon).

D-DHA substitution levels (in percent of total DHA) ([1]; neuroretina, day 8): 20.89% | D-DHA substitution levels (in percent of total DHA) ([1]; neuroretina, day 19): 42.94% | D-DHA substitution levels (in percent of total DHA) ([1]; neuroretina, day 38): 70.74% | D-DHA substitution levels (in percent of total DHA) ([1]; neuroretina, day 78): 92.10% | D-DHA substitution levels (in percent of total DHA) ([1]; plasma, day 8 after first exposure, 0.5% w/w D-DHA diet): 84.78% | D-DHA substitution levels (in percent of total DHA) ([1]; plasma, day 19): 94.17% | D-DHA substitution levels (in percent of total DHA) ([1]; plasma, day 38): 97.34% | D-DHA substitution levels (in percent of total DHA) ([1]; plasma, day 78): 98.43% | doubling interval of D-DHA substitution rate ([1]; plasma): 6 to 7 days | D-DHA substitution levels (in percent of total DHA) ([1]; red blood cells, day 8): 48.24% | D-DHA substitution levels (in percent of total DHA) ([1]; red blood cells, day 19): 72.84% | D-DHA substitution levels (in percent of total DHA) ([1]; red blood cells, day 38): 94.12% | D-DHA substitution levels (in percent of total DHA) ([1]; red blood cells, day 78): 96.65% | doubling interval of D-DHA substitution rate ([1]; red blood cells): ~10 days | doubling interval of D-DHA substitution rate ([1]; retina): 20 to 22 days
SMILES: [2H]C([2H])(/C=C\CC)/C=C\C([2H])([2H])/C=C\C([2H])([2H])/C=C\C([2H])([2H])/C=C\C([2H])([2H])/C=C\CCC(=O)OCC [D-DHA, 6,6,9,9,12,12,15,15,18,18-D10-(4Z,7Z,10Z,13Z,16Z, 19Z)-docosa 4,7,10,13,16, 19-hexaenoic acid ethyl ester]
immunolabelling for CEP [2]: undetected

— patent US20230333087A1, “METHODS FOR MONITORING PATIENT RESPONSE TO TREATMENT OF RETINAL OXIDATIVE DISEASES” (BioJiva LLC, priority 2022, published 2023)
